# Experimental data reported in patent publication US20200278355A1, “CONJUGATED PROTEINS AND USES THEREOF” (THE SCRIPPS RESEARCH INSTITUTE, priority 2017, published 2020).
# Entries after “also recorded” stand apart in the source; their conditions may differ.
# Target: T1, NR0B1-SNW1 interaction (Homo sapiens, UniProt P51843)
# T1 construct: endogenous in cells; host or cells: NR0B1: H2122 cell lysate
# T1 sequence (P51843 1-470): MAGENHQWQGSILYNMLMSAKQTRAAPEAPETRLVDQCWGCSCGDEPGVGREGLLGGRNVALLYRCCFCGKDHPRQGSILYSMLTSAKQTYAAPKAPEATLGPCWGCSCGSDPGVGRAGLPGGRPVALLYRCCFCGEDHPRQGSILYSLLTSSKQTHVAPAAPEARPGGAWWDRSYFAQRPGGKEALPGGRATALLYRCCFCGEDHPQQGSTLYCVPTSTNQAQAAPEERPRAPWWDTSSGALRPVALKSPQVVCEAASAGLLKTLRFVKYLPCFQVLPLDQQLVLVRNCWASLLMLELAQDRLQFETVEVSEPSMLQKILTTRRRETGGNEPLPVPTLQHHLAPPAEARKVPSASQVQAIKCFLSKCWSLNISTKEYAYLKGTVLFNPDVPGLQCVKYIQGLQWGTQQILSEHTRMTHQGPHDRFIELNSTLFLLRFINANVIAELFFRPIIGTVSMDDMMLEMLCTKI
# Experiment: In vitro binding assay: NR0B1 in H2122 lysate binding to immobilized FLAG-SNW1
# Conditions: for IC50: in vitro, read-out: IC50, inhibition of the NR0B1-SNW1 interaction
# Experimental: H2122 clarified cell lysate (100 μL, 1 mg ml^−1) in IP-buffer were incubated with the indicated compounds or vehicle (DMSO) for 3 hours at 4° C. with rotation. Following treatment, 3 volumes of IP-buffer was added along with immobilized FLAG-SNW1 beads (30 μL, 50:50 slurry), which was incubated for an additional hour at 4° C. Beads were washed three times with IP-buffer supplemented with 500 mM NaCl. Immunoprecipitated proteins were resolved by SDS-PAGE and analyzed by immunoblotting. NR0B1 and HA-NR0B1 levels were determined by using the NR0B1 antibody (Cell Signaling). IC50 curves were determined using Prism 6 (Graphpad) software, with maximum and minimum values set at 100% NR0B1 bound 0% NR0B1 bound respectively.
# Statistical analysis was preformed using GraphPad Prism version 6 or 7 for Mac, GraphPad Software, La Jolla Calif. USA, or the R statistical programming language. Inhibition curves of the NR0B1-SNW1 interactions by NR0B1-ligand are fit as using log(inhibitor) vs % normalized remaining of NR0B1-SNW1 interaction and data points are plotted as the mean±SD (n=2-5 per group). NR0B1 half-life was calculated from a one-phase exponential decay curve plotted as mean±SD (4-10 per group). Statistical significance was defined as p<0.05 and determined by 2-tailed Student's t-test (FIG. 1I, FIG. 3B), two-way Anova with Bonferroni post-test analysis (FIG. 1J) or correlation analysis using Pearson product-moment correlation coefficient (FIG. 4B, FIG. 10G).
# Next, a chemical probe targeting C274 of NR0B1 was developed. Using an in vitro binding assay (FIG. 5B), an ˜80-member library of cysteine-reactive electrophilic compounds was screened at 50 μM for blockade of interactions between endogenous NR0B1 and recombinant FLAG-SNW1 in cell lysates (FIG. 5C). Among the hits (>50% blockade) were a series of N-disubstituted chloroacetamides (CAs), including BPK-26 (FIGS. 5D, 5E), that were selected for further investigation. […] Both BPK-26 and BPK-29 inhibited the NR0B1-SNW1 interaction with IC50 values between 10-20 μM in vitro (FIG. 11C).
SMILES,IC50,blockade of interactions between endogenous NR0B1 and recombinant FLAG-SNW1 (screened at 50 μM in cell lysates),inhibition of the NR0B1-SNW1 interaction (tested concentration range of 1-50 μM),relative potency for inhibition of FLAG-SNW1 binding to NR0B1 (structure-activity relationship) (compounds at 50 μM)
"O=C(CCl)N(Cc1cccc(Cl)c1F)c1ccc(Cl)nc1 [BPK-26, 2-chloro-N-(3-chloro-2-fluorobenzyl)-N-(6-chloropyridin-3-yl)acetamide]",10 to 20 µM,> 50%,,
"O=C(c1ccc(N2CCOCC2)cc1)N1CCC(CN(C(=O)CCl)c2cncnc2)CC1 [BPK-9, 2-chloro-N-((1-(4-morpholinobenzoyl)piperidin-4-yl)methyl)-N-(pyrimidin-5-yl)acetamide]",,,did not inhibit,
"O=C(c1ccc(N2CCOCC2)cc1)N1CCCC(N(Cc2ccccc2)C(=O)CCl)CC1 (centres unmarked) [BPK-29, N-benzyl-2-chloro-N-(1-(4-morpholinobenzoyl)azepan-4-yl)acetamide]",10 to 20 µM,,,the most potent analogue; also recorded: recovered potency
